Experimental findings from paper PMC7229044, “Triterpenoid acids isolated from Schinus terebinthifolia fruits reduce Staphylococcus aureus virulence and abate dermonecrosis” (Scientific Reports, 2020) are described below.

pIC50: −log10 of the molar value. ≈ marks a conversion by molar mass, not a printed value. Entries after “also recorded” stand apart in the source; their conditions may differ.

One series concerns S. aureus UAMS-1 biofilm. The experiment in a line: Biofilm formation, human plasma protein-coated microtiter assay. It is filed as cell-based, Staphylococcus aureus. To be noted: crystal violet; for concentrations that reduced biofilm: for 2 and 3 bacterial growth also reduced. The protocol:
All compounds were examined (2–281 μM) for impact on S. aureus biofilm formation using a human plasma protein-coated assay as previously described[49],[51],[52]. Additionally, to monitor for any growth impact in this assay, the optical density of planktonic cells in the biofilm wells was calculated by transferring the supernatant to a new 96-well plate and reading the OD600nm in a BioTek plate reader. S. aureus isolate UAMS-1 was used for the biofilm assay, and its isogenic sarA mutant (UAMS-929), which has a biofilm deficient phenotype, served as a positive control. All tests were performed in triplicate and repeated using a new stock of bacteria on a separate day.

For a further series, the system named is S. aureus UAMS-1. The experiment in a line: Broth microdilution growth inhibition (MIC). Type of series: cell-based, Staphylococcus aureus. Particulars: ND = not detected at 4–563 μM; for pIC50: UAMS1, ≥50% growth inhibition. The protocol: (§1) Fraction 430F-F5 and isolated compounds of S. terebinthifolia 1-3, were evaluated for minimum inhibitory concentrations (MICs) against the four agr groups, the biofilm test strain (UAMS-1) and NRS249 (for δ-toxin quantification experiments) following the Clinical Laboratory Standards Institute (CLSI) M100-S23 guidelines for microtiter broth dilution testing. Fraction, compounds 1-3 and vehicle were tested at a concentration range of 4 to 563 μM, using 2-fold serial dilution. The optical density (OD600nm) was measured with a BioTek Cytation 3 multimode plate reader, to calculate percent inhibition of growth. […] Control included the vehicle (DMSO) and antibiotic (Ampicillin, MP Biomedicals Inc). All tests were performed in triplicate and repeated using a new stock of bacteria on a separate day.
A general note: Broth dilution looks for growth in wells or tubes with falling amounts of substance.

A further series relates to S. aureus UAMS-929. The experiment in a line: Broth microdilution growth inhibition (MIC). It is filed as cell-based, Staphylococcus aureus. To be noted: for pIC50: UAMS929, read-out: IC50 (growth). The protocol:
as §1

In series [1] the test system is S. aureus AH1747 (agr III). The experiment in a line: Broth microdilution growth inhibition (MIC). To be noted: for pIC50: ≥50% growth inhibition; for pIC50 / MIC: ND = not detected at 4–563 μM; for MIC: ≥90% growth inhibition. Type of series: cell-based, Staphylococcus aureus. The method, then: as §1
Series [2] relates to S. aureus AH1263; LAC (agr I). The experiment in a line: Broth microdilution growth inhibition (MIC). It is filed as cell-based, Staphylococcus aureus. To be noted: for pIC50: read-out: IC50 (growth). The protocol: as §1
For the next series, the system named is S. aureus NRS249 (agr I). The experiment in a line: Broth microdilution growth inhibition (MIC). Type of series: cell-based, Staphylococcus aureus. To be noted: ND = not detected at 4–563 μM; for pIC50: ≥50% growth inhibition; for MIC: ≥90% growth inhibition. The protocol:
as §1

The test system of series [3] is agr activity, AH430 (agr II). The experiment in a line: microbe, parasite or virus in culture. To be noted: Staphylococcus aureus, 24 h; for pIC50: read-out: IC50 for quorum sensing inhibitory activity; for IC90: read-out: IC90 for quorum sensing inhibitory activity. It is filed as cell-based. The protocol:
(§2) S. aureus agr reporter strains AH1677 (agr I), AH430 (agr II), AH1747 (agr III) and AH1872 (agr IV) were grown overnight in TSB supplemented with chloramphenicol at 37 °C while shaking at 200 rpm. Cultures of S. aureus were standardized by optical density (OD600nm) matching to a 0.5 McFarland standard to reach a final inoculum density in the wells of 5 × 10^5 CFU mL^−1 in TSB, supplemented with 10 μg/mL chloramphenicol. […] Black sided, 96-well, clear bottom, tissue-culture treated plates (Costar 3603) with final well volume of 200 μL were used for all agr inhibition assays. Plates were incubated in a humidified chamber at 37 °C while shaking at 260 rpm. After 24 hours, plates were removed and OD600 and fluorescence were measured by plate reader at an excitation of 493 nm and emission of 535 nm. All tests were performed in triplicate and repeated using a new stock of bacteria on a separate day.

In series [4] the test system is agr activity, AH1872 (agr IV). The experiment in a line: microbe, parasite or virus in culture. To be noted: Staphylococcus aureus, 24 h; for pIC50: read-out: IC50 for quorum sensing inhibitory activity. Type of series: cell-based. The method, then:
as §2

Series [5] deals with agr activity, AH1677 (agr I). The experiment in a line: microbe, parasite or virus in culture. Particulars: Staphylococcus aureus, 24 h, read-out: IC50 for quorum sensing inhibitory activity. It is filed as cell-based. The method, then:
as §2

Series [6] concerns all S. aureus accessory gene regulator (agr) alleles. The experiment in a line: microbe, parasite or virus in culture. Type of series: cell-based. To be noted: Staphylococcus aureus, read-out: IC50 values for quorum sensing inhibition, range over all four agr types. The method, then:
as §2

For series [7], the system named is agr activity, AH1747 (agr III). The experiment in a line: microbe, parasite or virus in culture. It is filed as cell-based. To be noted: Staphylococcus aureus, 24 h; for pIC50: read-out: IC50 for quorum sensing inhibitory activity; for IC90: read-out: IC90 for quorum sensing inhibitory activity. The protocol: as §2
The nature of series [8]: HaCaT cytotoxicity assay (LDH). Type of series: cell-based. To be noted: human, HaCaT keratinocyte cells, read-out: IC50 for cytotoxicity to HaCaTs. The protocol:
The HaCaT cell line was maintained and cytotoxicity of compounds (1-3) were assessed using the LDH cytotoxicity assay as previously described. The Therapeutic Index (TI) was calculated as a ratio of the TD50 (Toxic dose for cytotoxicity at IC50) and ED50 (effective dose for quorum sensing inhibiton IC50): = TD50/ED50 . Cytotoxicity of supernatants was further evaluated using a viability/cytotoxicity assay and imaged with fluorescent microscopy as previously described. All tests were performed in triplicate and the full experiment was repeated on a separate day using fresh cell stock.

A further series concerns MRSA (LAC, USA300). The experiment in a line: Murine model of MRSA skin infection (dermonecrosis). Particulars: BALB/c mice, intradermal, 1×10^8 CFU LAC with single 50 µg dose at time of infection; vs DMSO vehicle. It is filed as in vivo. The text has this:
A previously described murine model of MRSA skin infection was used to determine the efficacy of each Schinus compound as an anti-infective[25]. All animal experiments described herein were approved by and conducted in accordance with the recommendations of the Animal Care and Use Committee at the University of Colorado Anschutz Medical Campus (IACUC protocol number 117217). One day prior to inoculation, the abdominal hair of 8 week old female BALB/c mice was shaved and chemically removed with topical application of Nair for 1 minute. LAC (USA300, AH1263) was grown in TSB media overnight at 37 °C in a shaking incubator (200 rpm). Overnight LAC culture was diluted 1:100 in fresh TSB media and allowed to grow to early log phase (~2 hr to OD600nm 0.5). Cells were washed in sterile PBS and resuspended to achieve an inoculum of 1×10^8 CFU. 50 μL inoculum suspensions containing 1×10^8 CFU LAC and 50 μg of each compound 1-3 (diluted in DMSO) or DMSO vehicle control were injected intradermally into the abdominal skin of each BALB/c mouse. Baseline body weights for the mice were taken prior to injection and each day following. For determination of lesion size, digital photos of skin lesions were taken with an iPhone camera and analyzed with ImageJ software for Mac. Inoculum CFU was verified by serial dilution, plating, and colony counting after overnight incubation of the plate.

[9] abbreviates: Staphylococcus aureus, UAMS1, ≥90% growth inhibition.
Where [10] appears, read: UAMS-929, ≥90% growth inhibition, ND = not detected at 4–563 μM.
[11] abbreviates: AH1263, LAC (agr I), ≥90% growth inhibition, ND = not detected at test range 4–563 μM.

As usually defined, the pIC50 is the IC50 on a negative log10 scale, so that one unit is a factor of ten. Broadly, the MIC is the least concentration at which growth counts as inhibited. High values mean weaker potency, low ones greater potency. By IC90 is commonly meant the concentration at which the effect reaches the 90% level. `CC(=CCCC(C)C1CCC2(C)C3=CCC4C(C)(C)C(O)CCC4(C)C3CCC12C)C(=O)O` (stereo not drawn) [Compound 3, 3α-hydroxytirucalla-7,24Z-dien-26-oic acid]: the “concentrations that increased biofilm formation” value in the series with S. aureus UAMS-1 biofilm was 2 to 16 µM. Moreover, the “concentrations that reduced biofilm” value in the series on S. aureus UAMS-1 biofilm is on record as at least 35 µM. Also, the negative logarithm of the IC50 (pIC50) in the series with S. aureus UAMS-1 (Staphylococcus aureus) is 4.46; in the series with S. aureus UAMS-929 (Staphylococcus aureus) it was 4.46; in [1] (Staphylococcus aureus), 5.05; in series [2] (Staphylococcus aureus), 4.46; in the series on S. aureus NRS249 (agr I) (Staphylococcus aureus) it was 4.74; in series [3] it was 5.05. The pIC50 in series [4] was 5.05; in series [5], 5.40; in [6] it was 5.05 to 5.40; in [7], 5.05; in [8], 4.15. In addition, the minimum inhibitory concentration (MIC) is 70 µM (≈ 32 µg/mL) with S. aureus UAMS-1 (setting [9]); 70 µM (≈ 32 µg/mL) against S. aureus UAMS-1 (≥90% growth inhibition); 70 µM (≈ 32 µg/mL) with S. aureus UAMS-929 (Staphylococcus aureus, UAMS929); 70 µM (≈ 32 µg/mL) against S. aureus UAMS-929 (setting [10]); 18 µM (≈ 8.22 µg/mL) in series [1] (Staphylococcus aureus); 18 µM (≈ 8.22 µg/mL) in [1]. The MIC came to 141 µM (≈ 64.4 µg/mL) in series [2] (Staphylococcus aureus) and 281 µM (≈ 128 µg/mL) with S. aureus NRS249 (agr I) (Staphylococcus aureus). Also, the IC90 in [3] came to 281 µM; in series [4] (read-out: IC90 for quorum sensing inhibitory activity), 281 µM; in series [7], 18 µM.
As for `CC(=CCCC(C)C1CCC2(C)C3=CCC4C(C)(C)C(=O)CCC4(C)C3CCC12C)C(=O)O` (stereo not drawn) [Compound 2, 3-oxotirucalla-7,24Z-dien-26-oic acid], in the series with S. aureus UAMS-1 biofilm, the “concentrations that increased biofilm formation” value lay within 2 to 16 µM. In the series with S. aureus UAMS-1 biofilm, the “concentrations that reduced biofilm” value is reported as at least 35 µM. Besides, the “dermonecrotic lesion / skin damage” value with MRSA (LAC, USA300) is on record as “reduced the dermonecrotic lesion area to nearly undetectable levels; also recorded: decreased MRSA-associated tissue damage to the limit of detection”. Further, the pIC50 was 4.46 in the series on S. aureus UAMS-1 (Staphylococcus aureus); 4.46 in the series with S. aureus UAMS-929 (Staphylococcus aureus); 3.85 in [2] (Staphylococcus aureus); 5.05 with S. aureus NRS249 (agr I) (Staphylococcus aureus); 5.70 in series [3]; 5.05 in series [4]. The pIC50 is 5.40 in series [5], 5.05 to 5.70 in series [6], 5.05 in [7] and 4.15 in series [8]. The MIC was found to be 70 µM (≈ 31.8 µg/mL) in the series with S. aureus UAMS-1 (setting [9]); 70 µM (≈ 31.8 µg/mL) in the series on S. aureus UAMS-1 (≥90% growth inhibition); 70 µM (≈ 31.8 µg/mL) in the series with S. aureus UAMS-929 (Staphylococcus aureus, UAMS929); 70 µM (≈ 31.8 µg/mL) against S. aureus UAMS-929 (setting [10]); 563 µM (≈ 256 µg/mL) in [2] (setting [11]); 563 µM (≈ 256 µg/mL) in series [2] (Staphylococcus aureus). Besides, the MIC with S. aureus NRS249 (agr I) (Staphylococcus aureus) and in the series on S. aureus NRS249 (agr I) was 18 µM (≈ 8.18 µg/mL) throughout. Moreover, the IC90 in series [3] and in series [7] was 281 µM throughout.
For `CC1(C)CCC2(C(=O)O)CCC3(C)C(=CCC4C5(C)CCC(=O)C(C)(C)C5CCC43C)C2C1` (stereo not drawn) [Compound 1, 3-oxo-olean-12-en-28-oic acid], in the series on S. aureus UAMS-1 biofilm, the “concentrations that increased biofilm formation” value lay in the range of 2 to 70 µM. In the series with S. aureus UAMS-1 biofilm, the “concentrations that reduced biofilm” value lay in the range of 141 to 281 µM. Further, the pIC50 is below 3.25 in the series with S. aureus UAMS-1 (Staphylococcus aureus); 3.85 in series [1] (Staphylococcus aureus); 5.40 in series [3]; 4.46 in series [4]; 4.74 in [5]; 4.15 to 5.40 in series [6]. Besides, the pIC50 in series [7] is 4.15; in series [8], 3.85. In addition, the MIC was above 563 µM against S. aureus UAMS-1 (setting [9]), 281 µM (≈ 128 µg/mL) in series [1] (Staphylococcus aureus) and above 563 µM in series [2] (setting [11]). Also, the growth inhibition in series [1] (at up to 80 µM) is ~ 15%. The IC90 in [3] amounted to 70 µM; in series [7] it was 281 µM.
